According to patent US7943606B2, “Compositions and methods to control abnormal cell growth” (CanCure Laboratories, LLC, priority 2005, dated 2011):

How the values were obtained:
NIH 3T3 cells = assay: Viability of NIH 3T3 normal fibroblasts (MTT assay); assay type: cell-based; conditions: 0-200 μM, 72 hours, MTT
Protocol: (§1) To quantify cell death, around the time when significant and characteristic morphological changes took place, cells were pulse-labeled for 10 minutes with [^3H]thymidine to measure DNA activity as described elsewhere [Tomono, M. and Kiss, Z. (1995), “Ethanol enhances the stimulatory effects of insulin and insulin-like growth factor-I on DNA synthesis in NIH 3T3 fibroblasts,” Biochem. Biophys. Res. Commun. 208, 63-67]. Also, cells were collected as suspensions using trypsin, an established method in cell biology, followed by re-plating of cells in fresh tissue culture medium. If no viable cells were obtained after one week in culture, it meant that the cells at the time of re-plating were dead. Survival values obtained with untreated cells were considered 100%. For the determination of relative number of viable cells after treatments, in most cases the MTT assay was used. This calorimetric assay is based on the ability of living cells, but not dead cells, to reduce 3-(4,5-dimethyl thiazol-2-yl)-2,5-diphenyltetrazolium bromide [Carmichael, J, De Graff, W. G., Gazdar, A. F., Minna, J. D. and Mitchell, J. B. (1987), “Evaluation of tetrazolium-based semi-automated calorimetric assay: Assessment of chemosensitivity testing,” Cancer Res. 47, 936-942]. For this assay, cells were plated in 96-well plates, and the MTT assay was performed both in untreated and treated cell cultures. The MTT assay also was performed at the start of treatments to allow assessment of proliferation rates in the control and treated cell cultures.
(§2) The NIH 3T3 (normal) mouse fibroblast, A431 human epidermoid adenocarcinoma, and MCF-7 human breast cancer cells were cultured in DMEM medium containing 10% FBS. The MEL-28 human melanoma cells were cultured in MEM medium containing 10% FBS. The HT-29 human colon adenocarcinoma cells were cultured in McCoy's 5a medium containing 10% FBS. The A549 human lung carcinoma cells were maintained in Ham's F12K medium containing 10% FBS. Cells were seeded into 96-well plates and treated at ˜70-90% confluency. Two hours before treatments the medium was changed for fresh 10% serum medium, and then the cells were incubated for 72 hours in the presence of 0-200 μM of CCompound1 (●) or CCompound3 (CCDTHT) (▴), as indicated. The MTT assay was used to determine cell viability after treatments. The values, shown in FIGS. 5A-5F and expressed as percent decrease in viability compared to the untreated control cells, are the mean±std. dev. of 8 incubations in one experiment. Similar results were obtained in another experiment.
(§3) NIH3T3, T47D, A-431, HT-29, and MEL-28 cells were cultured as indicated earlier. CaOV-3 human ovarian cancer cells were cultured in DMEM containing 10% FBS. ZR-75-1 human estrogen receptor-positive breast cancer cells were maintained in RPMI 1640 medium supplemented with 10% FBS. HTB-157 human fetal fibroblasts, MEL-24 human malignant melanoma cells, Hep G2 human hepatoblastoma cells, and CaCO-2 human colon adenocarcinoma cells were maintained in Eagles's MEM containing 10% FBS. MB-231 human estrogen receptor-negative breast cancer cells were maintained in Leibovitz's L-15 medium supplemented with 10% FBS. Cells were seeded into 96-well plates and treated at ˜70-90% confluency. Two hours prior to treatments the medium was changed for fresh 10% serum medium, and then the cells were incubated for 10 days in the absence (□) or presence of 50 μM CCDTHT ? or 100 μM CCDTHT (▪). The medium was changed and the cells were re-treated on days 3 and 6. The MTT assay was used to determine cell viability on day 10. The data, shown in FIG. 6, are the mean±std. dev. of 8 incubations in one experiment. (The experiment was repeated twice with similar results).
(§4) NIH 3T3, MEL-28, MEL-24, CaOV-3, ZR-75-1, and T47D cells were cultured as described above. The OVCAR human ovarian cancer cells were cultured in DMEM containing 10% FBS. Cells were seeded into 96-well plates and used at ˜60-80% confluency. […]

A-431 cells = assay: Viability of A-431 epidermoid adenocarcinoma cells (MTT assay); assay type: cell-based, human; conditions: 0-200 μM, 72 hours, MTT
Protocol: as §1, §2, §3, §4

[1] = Toxicological studies in mice; assay type: in vivo, mouse; conditions: 200-500 μmole/animal
Protocol: Accordingly, a well-tolerated dose for CCDTHT in mice is 450 μmole/animal (weighing about 25 g) which corresponds to a dose of 4.6 mg/kg. Therapeutically effective concentrations in humans will exert maximal inhibitory effects on the growth of non-healthy tissues without causing significant toxicity in normal healthy tissues.
Parallel toxicological studies also have been performed with 200-500 μmole/animal doses of the commercially available CCompound1. […] CCompound26, which may have an even better toxicity profile based on in vitro experiments with normal cells, was synthesized much later and has not yet been tested in animal experiments.

MCF-7 cells = assay: Viability of MCF-7 breast cancer cells; assay type: cell-based, human; conditions: 0-200 μM, 72 hours, MTT
Protocol: as §1
About 50% confluent cultures of MCF-7 cells, cultured in 12-well plates in Dulbecco's modified Eagle's medium (DMEM) supplemented with 10% FBS, were either untreated (FIG. 3A), or were treated with 100 μM CCDTHT (CCompound3) for 72 hours (FIG. 3B). […] This experiment was repeated three times with similar results. In some experiments, cells from the CCDTHT-treated cultures were seeded into 96-well plates, and the MTT assay was performed 96 hours later to test for viable cells.
as §2
NIH 3T3, AN3CA, HT-29, MEL-28, and MCF-7 cells were cultured as described earlier. Cells were seeded into 96-well plates; when cells were ˜80-90% confluent, the medium was changed for fresh 10% serum-containing medium, followed by incubations for 72 hours in the absence (□) or presence of 100 μM CCDTHT ? , 2 mM ethanolamine (Etn) ? , or 100 μM CCDTHT+2 mM Etn (▪). The MTT assay was used to determine cell viability. […]

choline transport = assay: [14C]choline uptake and metabolism in AN3CA, MCF-7 and MEL-28 cancer cells; assay type: cell-based, human
Protocol: MEL-28 and MCF-7 cells were cultured in MEM medium supplemented with 10% fetal bovine serum (FBS) and in DMEM medium supplemented with 10% FBS, respectively. The AN3CA human endometrial adenocarcinoma cells were maintained in Eagle's MEM containing 10% FBS. Cancer cells were grown up to confluency in 12-well plates in 10% fetal-bovine serum-containing medium, then incubated in the presence of 1 μCi of [methyl-^14C]choline (bought from Amersham; Piscataway, N.J.) for 2 hours. Cells were first rapidly (within 30 seconds) washed three times with 4 ml of serum-free medium, then extracted with ice-cold methanol. This was followed by the determination of cellular free radiolabeled choline and phosphocholine (PCho) by column chromatography as described earlier [Kiss, Z. and Crilly, K. S. (1995), “Tamoxifen inhibits uptake and metabolism of ethanolamine and choline in multidrug-resistant, but not in drug-sensitive, MCF-7 human breast carcinoma cells,” FEBS Lett. 360, 165-168], and the separation and determination of radiolabeled phosphatidylcholine (PtdCho) by thin layer chromatography as indicated in Kiss [Kiss, Z. (1996), “Direct proof that phorbol ester accelerates the use of choline phosphate for phosphatidylcholine synthesis in intact cells,” Arch. Biochem. Biophys. 335, 191-196].
MCF-7 and MEL-28 cells were cultured as described earlier. The AN3CA human endometrial adenocarcinoma cells were maintained in Eagle's MEM containing 10% FBS. Each cell type was grown in 12-well plates to confluency and then incubated with 1 μCi of [methyl-^14C]choline for 2 hours in the absence (□) or presence of 100 μM CCDTHT ? or 0.5 mM HC-3 (▪), followed by the determination of cellular contents of radiolabeled choline (A), PCho (B) and PtdCho (C), as indicated in FIG. 9. […] Thus, if both CCDTHT and HC-3 influenced cell viability solely via inhibition of choline metabolism, then these agents should similarly affect cell viability, at least at the concentrations used in the choline transport experiment.

[2] = cited from earlier work

What does the source list for `Cc1c(OCC(O)C[N+](C)(C)C)cc2c(=O)c3ccccc3sc2c1C.[Cl-]` (stereo not shown) [CCcompound1, [3-(3,4-Dimethyl-9-oxo-9H-thioxanthen-2-yloxy)-2-hydroxypropyl]trimethyl-ammonium chloride, reference compound]?
toxic effects in NIH 3T3 (normal) fibroblast cultures (NIH 3T3 cells): none of these compounds exerted major toxic effects; decrease in viability, A-431 (A-431 cells): similarly large effects; tolerability [1]: similarly well tolerated; decrease in viability, MCF-7 (MCF-7 cells): similarly large effects

Which “inhibitory effects on choline uptake and metabolism (choline, PCho, PtdCho)” value (choline transport; 100 μM CCDTHT or 0.5 mM HC-3, 2 hours, each cell line) does the source give for `C[N+]1(C)CCOC(O)(c2ccc(-c3ccc(C4(O)C[N+](C)(C)CCO4)cc3)cc2)C1.[Br-].[Br-]` (stereo not shown) [HC-3] here?
Its value is “comparably strong inhibitory effects”.

What about the “inhibition of choline transport” value (choline transport; 0.1 mM) of the same molecule?
The value was 20-25%.

B1: PALP: human placental alkaline phosphatase, highly purified from commercial (Sigma-Aldrich) PALP (protein, UniProt P05187 23-506, looked up)
Alkaline phosphatase, …: IIPVEEENPDFWNREAAEALGAAKKLQPAQTAAKNLIIFLGDGMGVSTVTAARILKGQKKDKLGPEIPLAMDRFPYVALSKTYNVDKHVPDSGATATAYLCGVKGNFQTIGLSAAARFNQCNTTRGNEVISVMNRAKKAGKSVGVVTTTRVQHASPAGTYAHTVNRNWYSDADVPASARQEGCQDIATQLISNMDIDVILGGGRKYMFRMGTPDPEYPDDYSQGGTRLDGKNLVQEWLAKRQGARYVWNRTELMQASLDPSVTHLMGLFEPGDMKYEIHRDSTLDPSLMEMTEAALRLLSRNPRGFFLFVEGGRIDHGHHESRAYRALTETIMFDDAIERAGQLTSEEDTLSLVTADHSHVFSFGGYPLRGSSIFGLAPGKARDRKAYTVLLYGNGPGYVLKDGARPDVTESESGSPEYRQQSAVPLDEETHAGEDVAVFARGPQAHLVHGVQEQTFIAHVMAFAACLEPYTACDLAPPAGTTD
Which half-life time [2] does the source give for B1 here?
Its half-life time is 120 to 140 h.
